How the values were obtained:
[1] = test system: WT mouse spleen basophils (splenocytes); assay: CXCR4 expression on mouse spleen basophils ex vivo; format: cell-based; settings: for CXCR4 expression on other WT splenocytes including T and B cells: data not shown; for CXCR4 expression on spleen WT basophils ex vivo: specific agonists, 24 hours ex vivo
Excerpt: (a) Ex vivo migration of basophils from whole WT or Lyn^−/− splenocytes to CXCL12. (b) CXCR4 expression levels on basophils from the indicated compartments in aged WT (n=16) and Lyn^−/− (n=14) animals. Data are normalized to the mean CXCR4 expression level of WT blood basophils. Statistical analyses placed directly above each bar compared the value for one given compartment to the blood compartment of the corresponding genotype. Statistical analyses between both genotypes for each compartment are also indicated. (c) Basophil number per peritoneum in young WT mice 24 hours after intraperitoneal (ip) injection of PBS or CXCL12 and compared to steady state (−) values (n=13/15/5, respectively). (d) CXCR4 expression levels on basophils from mesenteric lymph nodes (mLN) of young Lyn^−/− mice 24 hours after PBS or PGD2 ip injection normalized to PBS injected mice values' mean. (e) Basophil number in mLN of young Lyn^−/− mice 24 hours after ip injection of the indicated compound(s). (f) CXCR4 expression levels on spleen basophils from 15 weeks old WT mice incubated ex vivo for 24 hours with the indicated compound and normalized to the control values' mean. […] Basophils number and CXCR4 expression were assessed by flow cytometry. Statistical analyses were by unpaired t test with Welch's correction (a-e) and by paired Student t test (f).
(a-b) Relative CXCR4 expression levels on basophils (defined as CD19^−TCRβ^−CD3^−CD49b+FcεRIα^+CD123^+)CD45^lo and T cells (defined as CD45^+CD3^+TCRβ^+ cells) in splenocytes incubated 4 hours without (−) or with the indicated concentration of N6,2′-O-dibutyryl-adenosine 3′:5′-cyclic monophosphate (db-cAMP) or 1 μM PGD2 as determined by flow cytometry. Statistical analyses were by paired Student t tests. NS: not significant, *: P<0.05, **: P<0.01, ***: P<0.001. (c) Relative CXCR4 expression levels on spleen basophils (defined as in (a)) incubated 4 hours without (0) or with the indicated concentration (nM) of the indicated compound(s). DK-PGD2: 13,14-dihydro-15-keto-PGD2 (PTGDR-2 specific agonist); BW245c: 3-(3-Cyclohexyl-3-hydroxypropyl)-2,5-dioxo-(R*,S*)-(±)-4-imidazolineheptanioc acid (PTGDR-1 specific agonist) as determined by flow cytometry. Statistical analysis was by two-ways ANOVA followed by a Tukey's multiple comparisons test. (a-c) Data are normalized to control value mean (per group, n=4 to 8). Data are expressed as mean+s.e.m. All experiments were realized with splenocytes from 8-12 weeks old WT mice.
(§1) Human basophils and mouse splenocytes were cultured in culture medium (RPMI 1640 with Glutamax and 20 mM HEPES, 1 mM Na-pyruvate, non-essential amino acids 1× (all from Life Technologies, Saint-Aubin, France), 100 μg/ml streptomycin and 100 U/ml penicillin (GE Healthcare, Vélizy, France) and 37.5 μM β-mercaptoethanol (Sigma-Aldrich, MO)) supplemented with 20% heat-inactivated fetal calf serum at 37° C. and 5% CO2. 18 hours-long stimulation prior to migration assays were done in culture medium at 1×10^6 cells per mL by adding 1 nM of IL-3 (Peprotech), 1 μM of prostaglandin D2 (PGD2), 1 μM of the PTGDR-1 specific agonist BW245c, 1 μM of the PTGDR-2 specific agonist 13,14-dihydro-15-keto Prostaglandin D2 (DK-PGD2) (all from Cayman chemicals) or 5 ng/mL of anti-IgE (mouse anti-human IgE or rat anti-mouse IgE, both from Thermo Scientific). All cells were washed twice before any migration assay. Control conditions were always with the same vehicle concentration as stimulated conditions.

[2] = test system: purified human basophils; assay: 18 hours stimulation of purified human basophils, marker expression and migration towards CXCL12; format: cell-based
Excerpt: Human basophils were purified to >95% by negative selection with the Human Basophils Enrichment kit (Stemcell Technologies, Grenoble, France) for culture, stimulation and chemotaxis experiments. In some chemotaxis experiments, human basophils were enriched to 3-5% by negative selection with the Human PE positive selection kit (Stemcell Technologies) by using a cocktail of PE-conjugated anti-CD3, CD19 and CD89 (BioLegend). These kits were used following manufacturer instructions.
as §1
Migration assays were performed in culture medium supplemented with 0.1% bovine serum albumin (BSA, Sigma-Aldrich) in Transwell 5 μm polycarbonate permeable support 6.5 mm inserts (Corning, N.Y., N.Y.) for 3 hours at 37° C. and 5% CO2 with 1×10^5 purified basophils or 2×10^5 enriched basophils at 1×10^6 cells per mL. Purified or enriched basophils from the upper and bottom chambers were counted at the end of the assay. Basophil content and phenotype was determined by flow cytometry by analyzing more than 100 basophils. Purification or enrichment of human basophils didn't show any difference in the measured migration for all tested chemokines. Migration was defined as the ratio between the number of basophils in the bottom chamber and the number of basophils in the upper plus the bottom chambers. Spontaneous migration was defined as the migration observed without any chemokine in the bottom chamber. Corrected migration was defined as the difference between specific and spontaneous migration. For migration assays the following concentrations (known to be optimal) were used for each compound: Human IL-3: 300 pM (Peprotech), human CCL3, CCL5, and CXCL12: 50 nM; CXCL2 (all from BioLegend) and PGD2 (Cayman chemicals): 100 nM. Migration to human CCL3, CCL5, CXCL2, and PGD2 was done in the presence of IL-3 at 300 pM in both chambers. Migration with IL-3 represents chemokinetism: IL-3 was added in both chambers to the same concentration and compared to the spontaneous migration observed without IL-3. Effects of 24 hours incubation with IL-3 or PGD2 (as described above) on basophil apoptosis were estimated by using the FITC Annexin V Apoptosis Detection Kit from BD Biosciences and used accordingly to manufacturer's instructions.

[3] = test system: Lyn−/− mice; assay: PGD2-induced basophil in vivo migration assay; set-up: species or system mouse
[4] = test system: 12 weeks old Lyn−/− mice; assay: Acceleration of lupus-like disease development by repeated PGD2 injections
Excerpt: (a,b) Proportion of basophils (CD19^−TCRβ^−CD49b^+FcεRIα^+CD123^+)CD45^lo) among singlets living CD45^+ cells in mesenteric (a) and other (cervical, brachial and inguinal) lymph nodes (b) from 10 to 12 weeks-old Lyn^−/− mice injected over ten days with PBS (open circles) or PGD2 alone (open squares), and PGD2 injected and basophil depleted (MAR-1) (open diamonds) or not (IgG) (open triangles) as described in the methods. (c) IA-IE expression levels on LN basophils from mice as in (b). […] (d,e) Proportion of short lived plasma cells CD19^+CD138^+ among singlets living CD45^+ cells in spleen (d) and lymph nodes (e) in the same mice as in (b). (f) Representative immunofluorescence staining for C3 and IgG deposits in kidneys from mice as indicated in (b) (scale bar=1 mm) and their corresponding quantifications in PBS (n=3), PGD2 (n=4), PGD2+control IgG (n=3) and PGD2+MAR-1 (n=3) injected mice. (g) Fold increase in urine albumin/creatinine ratio before and after PBS or PGD2 10 days-long treatment. (a-e) Basophil, plasma cell numbers and IA-IE expression levels were assessed by flow cytometry. (a-g) Data are expressed as means±s.e.m. […] One representative out of three independent experiments is shown.
For acceleration of disease development by PGD2 injections, 12 weeks old Lyn^−/− mice were injected ip with 20 nmoles of PGD2 or vehicle in PBS, every two days for 10 days, for a total of 6 injections. Mice were analyzed the day following the last injection. […] Cell viability was assessed by the utilization of Ghost Dye Violet 510 (Tonbo, San Diego, Calif.).
Quantification of C3 and IgG deposits was realized by using ImageJ software (v1.49p, NIH, USA). A minimum of 20 glomeruli was quantified per kidney. For assessment of kidney function the albumin/creatinine ratio (ACR) was determined. Urine was collected from each mouse before and after treatment. The albumin concentration was measured with a mouse albumin ELISA (Bethyl laboratories, Montgomery, Tex.). A creatinine assay (R&D systems, Minneapolis, Minn.) was used to determine urine creatinine concentrations. Results are expressed as a fold increase corresponding to the ratio of the ACR after/before treatment.

[5] = biological target: CXCR4 (Homo sapiens, UniProt P61073); settings: cited from earlier work
[6] = test system: WT mice; assay: CXCL12-induced basophil in vivo migration assay; set-up: species or system mouse; settings: intraperitoneal injection, 24 hours
[7] = ip every two days over ten days

Chain of CXCR4 (P61073 whole entry, species assumed): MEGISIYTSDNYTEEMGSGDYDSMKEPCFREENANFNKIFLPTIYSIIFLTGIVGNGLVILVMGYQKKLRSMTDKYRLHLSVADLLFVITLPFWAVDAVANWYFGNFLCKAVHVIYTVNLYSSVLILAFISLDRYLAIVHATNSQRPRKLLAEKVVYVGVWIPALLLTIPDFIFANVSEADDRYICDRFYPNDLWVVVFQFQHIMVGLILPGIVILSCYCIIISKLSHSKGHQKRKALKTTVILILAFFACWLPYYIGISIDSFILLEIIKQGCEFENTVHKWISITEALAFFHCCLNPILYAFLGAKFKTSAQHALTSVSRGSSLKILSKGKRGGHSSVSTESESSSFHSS

Question: What does the source list for `CCCC(=O)Nc1ncnc2c1ncn2[C@@H]1O[C@@H]2COP(=O)(O)O[C@H]2[C@H]1OC(=O)CCC` [db-cAMP, N6,2′-O-dibutyryl-adenosine 3′:5′-cyclic monophosphate]?
Answer: CXCR4 externalization by mouse WT spleen basophils ([1]; 4 hours ex vivo): externalized; sensitivity of basophils versus T cells to the compound (CXCR4 externalization) ([1]; 4 hours ex vivo): 100 fold

Question: With “CXCL2: chemokine known to have an effect on basophils” as the molecule, how does the “increased CXCR4 externalization ex vivo as PGD2 did” value ([2]; data not shown) read?
Answer: None

Question: Which “CXCR4 externalization by T cells” value ([1]; 1 μM, 4 hours ex vivo) does the source give for `CCCCC[C@H](O)/C=C/[C@H]1C(=O)C[C@H](O)[C@@H]1C/C=C\CCCC(=O)O` [PGD2, 9α,15S-dihydroxy-11-oxo-prosta-5Z,13E-dien-1-oic acid] here?
Answer: unable

Question: What about the “CXCR4 expression on mLN basophils” value ([3]; i.p. injection, 24 hours) of the same molecule?
Answer: increased

Question: And the “basophil accumulation in SLOs and peritoneum” value ([3]; i.p. injection, 24 hours)?
Answer: drove their accumulation

Question: And the “peripheral basopenia compared to steady state” value ([3]; ip injection, data not shown)?
Answer: significant, but transient

Question: What about the “CXCR4 surface expression of other immune cell types” value ([4]; data not shown) of the same molecule?
Answer: didn't show any significant increase

Question: And the albuminuria ([4]; end of protocol, versus PBS-injected)?
Answer: increased albuminuria

Question: And the “CD19+CD138+ plasma cells in SLOs” value [4, 7]?
Answer: increased proportion

Question: What about the “IA-IE expression on basophils” value [4, 7] of the same molecule?
Answer: increased

Question: And the “basophil accumulation in SLOs” value [4, 7]?
Answer: accumulated systemically

Question: And the “immune complexes in the kidney (C3 and IgG deposition)” value [4, 7]?
Answer: increased deposition

Question: What about the “basophil CXCR4 expression levels” value ([4]; ip every two days over ten days, data not shown) of the same molecule?
Answer: increased

Question: And the basophil apoptosis ([2]; 1 μM, data not shown)?
Answer: without inducing

Question: What about the “CXCR4 expression on basophils” value ([2]; 18 hours priming, 1 μM PGD2 or sub-optimal anti-IgE) of the same molecule?
Answer: enhanced

Question: What about the PTGDR-2 internalization ([2]; 18 hours, 1 μM, data not shown) of the same molecule?
Answer: induced

Question: What about the “FcεRIα expression on basophil surface” value ([2]; PGD2 priming, data not shown) of the same molecule?
Answer: slight increase

Question: What about the “migration towards CXCL12” value ([2]; after 18 hours priming) of the same molecule?
Answer: enhanced

Question: For `O=C(O)CCCCCCC1C(=O)NC(=O)N1CCC(O)C1CCCCC1` (racemic) [BW245c, 3-(3-Cyclohexyl-3-hydroxypropyl)-2,5-dioxo-(R*,S*)-(±)-4-imidazolineheptanioc acid], which “CXCR4 expression on other WT splenocytes including T and B cells” value [1] is on record?
Answer: significant but much lower increase

Question: What about the “CXCR4 expression on spleen WT basophils ex vivo” value [1] of the same molecule?
Answer: up-regulation

Question: Which “PGD2-induced basophil recruitment in SLOs and peritoneum” value ([3]; co-injection with PGD2, ip) does the source give for `c1cc(CN2CCCNCCNCCCNCC2)ccc1CN1CCCNCCNCCCNCC1` [AMD3100] here?
Answer: completely abolished

Question: And the “known effects of CXCR4 antagonism” value [5]?
Answer: induce a release of hematopoietic stem cells and interfere with homeostatic functions

Question: For “CXCL12: C—X—C motif Ligand 12, chemokine; murine CXCL12 injected ip”, which “in vivo basophil migration to the injection site and draining mesenteric lymph nodes” value [6] is on record?
Answer: induced

Question: Which “CXCR4 expression on other WT splenocytes including T and B cells” value [1] does the source give for `CCCCCC(=O)CCC1C(=O)CC(O)C1C/C=C\CCCC(=O)O` (stereo not shown) [DK-PGD2, 13,14-dihydro-15-keto-PGD2] here?
Answer: significant but much lower increase

Question: What about the “CXCR4 expression on spleen WT basophils ex vivo” value [1] of the same molecule?
Answer: up-regulation

B1: CCL5: chemokine known to have an effect on basophils (protein, UniProt P13501 24-91, looked up)
C-C motif chemokine 5: SPYSSDTTPCCFAYIARPLPRAHIKEYFYTSGKCSNPAVVFVTRKNRQVCANPEKKWVREYINSLEMS
Question: Which “increased CXCR4 externalization ex vivo as PGD2 did” value ([2]; data not shown) does the source give for B1 here?
Answer: None

B2: CCL3: chemokine known to have an effect on basophils (protein, UniProt P10147 24-92, looked up)
C-C motif chemokine 3: SLAADTPTACCFSYTSRQIPQNFIADYFETSSQCSKPGVIFLTKRSRQVCADPSEEWVQKYVSDLELSA
Question: For B2, which “increased CXCR4 externalization ex vivo as PGD2 did” value ([2]; data not shown) is on record?
Answer: None

Source: patent publication US11559513B2, “PTGDR-1 and/or PTGDR-2 antagonists for preventing and/or treating systemic lupus erythematosus” (INSTITUT NATIONAL DE LA SANTE ET DE LA RECHERCHE MEDICALE …, priority 2015, dated 2023)
